Experimental data reported in patent publication US20250195513A1, “DEGRADATION OF IRAK4 BY CONJUGATION OF IRAK4 INHIBITORS WITH E3 LIGASE LIGAND AND METHODS OF USE” (BeiGene, Ltd., priority 2022, published 2025).

What was measured:
[1] = molecular target: T1, IRAK4 (Homo sapiens, UniProt Q9NWZ3); assay: IRAK4 Degradation Assay (Karpas299, HTRF/TR-FRET); type: cell-based; settings: Karpas-299 cells; for Dmax: maximum percentage of degradation
T1 construct: endogenous in cells; host or cells: Karpas299
T1 sequence (Q9NWZ3 1-460): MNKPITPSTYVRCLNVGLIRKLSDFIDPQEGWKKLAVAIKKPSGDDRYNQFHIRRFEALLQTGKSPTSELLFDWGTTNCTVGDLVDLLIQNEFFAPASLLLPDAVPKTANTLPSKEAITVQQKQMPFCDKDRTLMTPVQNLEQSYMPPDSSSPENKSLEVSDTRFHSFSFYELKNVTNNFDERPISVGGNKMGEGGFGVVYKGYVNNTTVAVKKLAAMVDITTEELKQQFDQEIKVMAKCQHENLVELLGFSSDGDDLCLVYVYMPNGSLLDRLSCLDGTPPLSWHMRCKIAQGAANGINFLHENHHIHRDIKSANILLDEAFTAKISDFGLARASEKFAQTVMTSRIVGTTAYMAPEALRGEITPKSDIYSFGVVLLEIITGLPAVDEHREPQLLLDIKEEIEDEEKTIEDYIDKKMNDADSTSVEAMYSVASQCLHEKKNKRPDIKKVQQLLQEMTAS
How it was run: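 Karpas299 cells at 0.2 million per well were exposed to serially diluted compounds for 24 h or 5 h, then lysed. IRAK4 remaining in lysates was quantified by HTRF (665/620 nm) after overnight antibody incubation at room temperature. Percent degradation was fitted to a four-parameter curve to give IC50 (DC50).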

[2] = molecular target: T1, IRAK4; assay: IRAK4 Degradation Assay with Human Serum (Karpas299, HTRF/TR-FRET); type: cell-based; settings: Karpas-299 in human serum, 24 hrs treatment; for DC50: read-out: IRAK4 degradtion with human serum assay DC50; for Dmax: read-out: IRAK4 degradtion with human serum assay Dmax (%)
Procedure: IRAK4 degradation was measured using a TR-FRET-based method (Degorce, François, et al. Current chemical genomics. 2009, 3: 22). Karpas299 resuspended in Human serum AB (GEMINI, 100-512) were seeded into 96-well plates at the density of 0.2 million cells per well and then treated with a series dilution of compounds. After 24 hrs treatment, cells were pelleted via centrifugation and washed with PBS, add 40 μL lysis buffer (Cisbio) to each well after removal of the supernatant. Plates were then incubated at room temperature with shaking for 30 minutes. A total of 16 μL of cell lysates from each well of a 96-well plate was transferred to a 384-well white assay plate. IRAK4 level was quantitated using the HTRF kit as described by the manufacturer manual (Cisbio). FRET signals were measured using a PHERAstar FSX reader (BMG Labtech).
After treatment, add HTRF lysis buffer to each well; seal the plate and incubate 1 hour at room temperature on a plate shaker; Once the cells are lysed, 16 μL of cell lysate are transferred to a PE 384-well HTRF detection plate; 4 μL of pre-mixed HTRF antibodies are added to each well; Cover the plate with a plate sealer, spin 1000 rpm for 1 min, Incubate overnight at room temperature; Read on BMG PheraStar with HTRF protocol (337 nm-665 nm-620 nm).
The inhibition (degradation) percentage of the compound was calculated by the following equation: […]
The IC50 (DC50) value of a compound can be obtained by fitting the following equation
Wherein, X and Y are known values, and IC50, Hillslope, Top and Bottom are the parameters obtained by fitting with software. Y is the inhibition percentage (calculated from the equation), X is the concentration of the compound; IC50 is the concentration of the compound when the […] is reached. The smaller the IC50 value is, the stronger the inhibitory ability of the compound is. Vice versa, the higher the IC50 value is, the weaker the ability the inhibitory ability of the compound is; Hillslope represents the slope of the fitted curve, generally around 1 *; Bottom represents the minimum value of the curve obtained by data fitting, which is generally 0%±20%; Top represents the maximum value of the curve obtained by data fitting, which is generally 100%±20%. The experimental data were fitted by calculating and analyzing with Dotmatics data analysis software.

[3] = 24 h treatment, read-out: IRAK4 in Karpas-299 (24 h) Dmax (%)
[4] = 24 h treatment, read-out: IRAK4 in Karpas-299 (24 h) DC50

| Compound | Dmax ([1]; 5 h treatment, read-out: IRAK4 in Karpas-299 (5 h) Dmax (%)) [%] | DC50 ([1]; 5 h treatment, read-out: IRAK4 in Karpas-299 (5 h) DC50) [nM] | Dmax [1, 3] [%] | DC50 [1, 4] [nM] | DC50 [2] [nM] | Dmax [2] [%] |
| --- | --- | --- | --- | --- | --- | --- |
| CC(C)(O)c1cc2nn(C34CC(N5CCN(CCC6CCN(c7cc(F)c([C@H]8CCC(=O)NC8=O)c(F)c7)CC6)CC5)(C3)C4)cc2cc1NC(=O)c1ccc2cc(C#N)cnn12 [Example 349, (R)-3-cyano-N-(2-(3-(4-(2-(1-(4-(2,6-dioxopiperidin-3-yl)-3,5-difluorophenyl)piperidin-4-yl)ethyl)piperazin-1-yl)bicyclo[1.1.1]pentan-1-yl)-6-(2-hydroxypropan-2-yl)-2H-indazol-5-yl)pyrrolo[1,2-b]pyridazine-7-carboxamide] | 94 | 3.9 | 97 | 2.4 | 7.7 | 98 |
| CC(C)(O)c1cc2nn([C@H]3CC[C@H](N4CCN(C5CCN(c6cc(F)c(N7CCC(=O)NC7=O)c(F)c6)CC5)CC4)CC3)cc2cc1NC(=O)c1ccc2cc(C#N)cnn12 [Example 293, 3-cyano-N-(2-((1r,4r)-4-(4-(1-(4-(2,4-dioxotetrahydropyrimidin-1(2H)-yl)-3,5-difluorophenyl)piperidin-4-yl)piperazin-1-yl)cyclohexyl)-6-(2-hydroxypropan-2-yl)-2H-indazol-5-yl)pyrrolo[1,2-b]pyridazine-7-carboxamide] | – | – | 96 | 9.4 | 9.4 | 96 |
| CC(C)(O)c1cc2nn([C@H]3CC[C@H](N4CCN(C[C@@H]5CCN(c6cc(F)c([C@H]7CCC(=O)NC7=O)c(F)c6)C5)CC4)CC3)cc2cc1NC(=O)c1ccc2cc(C#N)cnn12 [Example 392, 3-cyano-N-(2-((1S,4r)-4-(4-(((S)-1-(4-((R)-2,6-dioxopiperidin-3-yl)-3,5-difluorophenyl)pyrrolidin-3-yl)methyl)piperazin-1-yl)cyclohexyl)-6-(2-hydroxypropan-2-yl)-2H-indazol-5-yl)pyrrolo[1,2-b]pyridazine-7-carboxamide] | – | – | 97 | 0.9 | 11 | 98 |
| CC(C)(O)c1cc2nn([C@H]3CC[C@H](N4CCN(C(=O)[C@@H]5CCN(c6ccc(N7CCC(=O)NC7=O)cc6)C5)CC4)CC3)cc2cc1NC(=O)c1ccc2cc(C#N)cnn12 [Example 263, 3-cyano-N-(2-((1R,4r)-4-(4-((R)-1-(4-(2,4-dioxotetrahydropyrimidin-1(2H)-yl)phenyl)pyrrolidine-3-carbonyl)piperazin-1-yl)cyclohexyl)-6-(2-hydroxypropan-2-yl)-2H-indazol-5-yl)pyrrolo[1,2-b]pyridazine-7-carboxamide] | – | – | 96 | 2.6 | 15 | 99 |
| COc1cc2nn([C@H]3CC[C@H](N4CCN(C5CCN(c6cc(F)c([C@H]7CCC(=O)NC7=O)c(F)c6)CC5)CC4)CC3)cc2cc1NC(=O)c1ccc2cc(C#N)cnn12 [Example 338, 3-cyano-N-(2-((1r,4r)-4-(4-(1-(4-((R)-2,6-dioxopiperidin-3-yl)-3,5-difluorophenyl)piperidin-4-yl)piperazin-1-yl)cyclohexyl)-6-methoxy-2H-indazol-5-yl)pyrrolo[1,2-b]pyridazine-7-carboxamide] | – | – | 95 | 1.1 | 13 | 92 |
| CC(C)(O)c1cc2nn([C@H]3CC[C@H](N4CCN(CCCc5cc(F)c([C@H]6CCC(=O)NC6=O)c(F)c5)CC4)CC3)cc2cc1NC(=O)c1ccc2cc(C#N)cnn12 [Example 357, 3-cyano-N-(2-((1R,4r)-4-(4-(3-(4-((R)-2,6-dioxopiperidin-3-yl)-3,5-difluorophenyl)propyl)piperazin-1-yl)cyclohexyl)-6-(2-hydroxypropan-2-yl)-2H-indazol-5-yl)pyrrolo[1,2-b]pyridazine-7-carboxamide] | – | – | 97 | 1.1 | 12 | 97 |
| COC[C@@H]1CN([C@H]2CC[C@H](n3cc4cc(NC(=O)c5ccc6cc(C#N)cnn56)c(C(C)(C)O)cc4n3)CC2)CCN1C(=O)C1CN(c2cc(F)c(N3CCC(=O)NC3=O)c(F)c2)C1 [Example 410, 3-cyano-N-(2-((1S,4r)-4-((S)-4-(1-(4-(2,4-dioxotetrahydropyrimidin-1(2H)-yl)-3,5-difluorophenyl)azetidine-3-carbonyl)-3-(methoxymethyl)piperazin-1-yl)cyclohexyl)-6-(2-hydroxypropan-2-yl)-2H-indazol-5-yl)pyrrolo[1,2-b]pyridazine-7-carboxamide] | – | – | 98 | 1.8 | 18 | 91 |

Other lines, results leading:

| Dmax ([1]; 5 h treatment, read-out: IRAK4 in Karpas-299 (5 h) Dmax (%)) [%] | DC50 ([1]; 5 h treatment, read-out: IRAK4 in Karpas-299 (5 h) DC50) [nM] | Dmax [1, 3] [%] | DC50 [1, 4] [nM] | DC50 [2] [nM] | Dmax [2] [%] | Compound |
| --- | --- | --- | --- | --- | --- | --- |
| – | – | 94 | 2.1 | 14 | 98 | COC[C@H]1CN(C2CN(c3cc(F)c([C@H]4CCC(=O)NC4=O)c(F)c3)C2)CCN1[C@H]1CC[C@H](n2cc3cc(NC(=O)c4ccc5cc(C#N)cnn45)c(C(C)(C)O)cc3n2)CC1 [Example 323, 3-cyano-N-(2-((1R,4r)-4-((R)-4-(1-(4-((R)-2,6-dioxopiperidin-3-yl)-3,5-difluorophenyl)azetidin-3-yl)-2-(methoxymethyl)piperazin-1-yl)cyclohexyl)-6-(2-hydroxypropan-2-yl)-2H-indazol-5-yl)pyrrolo[1,2-b]pyridazine-7-carboxamide] |
| – | – | 98 | 1.9 | 9.2 | 99 | Cc1nc(C2CCC(=O)NC2=O)ccc1N1CCC(N2CCN(C34CCC(n5cc6cc(NC(=O)c7ccc8cc(C#N)cnn78)c(C(C)(C)O)cc6n5)(CC3)CC4)CC2)CC1 (stereo not shown) [Example 416, 3-cyano-N-(2-(4-(4-(1-(6-(2,6-dioxopiperidin-3-yl)-2-methylpyridin-3-yl)piperidin-4-yl)piperazin-1-yl)bicyclo[2.2.2]octan-1-yl)-6-(2-hydroxypropan-2-yl)-2H-indazol-5-yl)pyrrolo[1,2-b]pyridazine-7-carboxamide] |
| – | – | 90 | 0.9 | 4.2 | 95 | COC[C@@H]1CN(C2CN(c3cc(F)c([C@H]4CCC(=O)NC4=O)c(F)c3)C2)CCN1[C@H]1CC[C@H](n2cc3cc(NC(=O)c4ccc5cc(C#N)cnn45)c(C(C)(C)O)cc3n2)CC1 [Example 327, 3-cyano-N-(2-((1S,4r)-4-((S)-4-(1-(4-((R)-2,6-dioxopiperidin-3-yl)-3,5-difluorophenyl)azetidin-3-yl)-2-(methoxymethyl)piperazin-1-yl)cyclohexyl)-6-(2-hydroxypropan-2-yl)-2H-indazol-5-yl)pyrrolo[1,2-b]pyridazine-7-carboxamide] |
| – | – | 97 | 2.1 | 5.2 | 97 | COC[C@H]1CN([C@H]2CC[C@H](n3cc4cc(NC(=O)c5ccc6cc(C#N)cnn56)c(C(C)(C)O)cc4n3)CC2)CCN1C1CCN(c2ccc(C3CCC(=O)NC3=O)nc2C)CC1 (stereo partly drawn) [Example 422, 3-cyano-N-(2-((1R,4r)-4-((3R)-4-(1-(6-(2,6-dioxopiperidin-3-yl)-2-methylpyridin-3-yl)piperidin-4-yl)-3-(methoxymethyl)piperazin-1-yl)cyclohexyl)-6-(2-hydroxypropan-2-yl)-2H-indazol-5-yl)pyrrolo[1,2-b]pyridazine-7-carboxamide] |
